Here are results for ten compounds from paper PMC3814572, “Identification of Novel Compounds Inhibiting Chikungunya Virus-Induced Cell Death by High Throughput Screening of a Kinase Inhibitor Library” (PLoS Neglected Tropical Diseases, 2013).

Data set [1] has as its system HuH-7 cells. As to conditions: human.
Another data set can be described thus: in vitro. As to conditions: human.
The subject of data set [2] is CHIKV-118-GFP. Briefly: Resazurin reduction assay, dose-response of inhibition of CHIKV-associated cell death in HuH-7. As to conditions: for EC50: Chikungunya virus, Huh-7, 72 h; for SI (CC50/EC50): minimum SI based on the highest concentration of compound tested. In general terms: The colour change of resazurin is a common sign of viable cells or microbes.
Data set [3] relates to CHIKV-118-GFP. Briefly: Image-based high-content assay of CHIKV-118-GFP infectivity in HuH-7. It counts as cell-based, Chikungunya virus. As to conditions: for percentage of infected cells / inhibition at 20 µM / inhibition at 50 µM: 24 hrs; for observed apoptotic blebs associated with CHIKV infection: 24 hpi; for inhibition at 20 µM / inhibition at 50 µM: Chikungunya virus, read-out: inhibition of CHIKV-118-GFP infection.

Data set [4] can be described thus: Resazurin reduction assay, toxicity in MOCK-infected (non-infected) HuH-7. As to conditions: human.
Data set [5] deals with CHIKV-118-GFP. Briefly: Virus yield reduction assay (plaque assay of culture medium). As to conditions: 24 hrs, culture supernatant of HuH-7.
Data set [6] concerns CHIKV-118-GFP. Briefly: Microneutralization assay (protection against CHIKV-induced CPE). As to conditions: 50 pfu CHIKV-118-GFP, 72 hrs, HuH-7.
A further data set has as its system DENV2 (BR DEN2 01-01). As to conditions: 10 µM, Huh-7.5, 72 hrs; cited from earlier work.
The test system of the next data set is Huh-7.5 cells. As to conditions: 10 µM, Huh-7.5, 72 hrs; cited from earlier work.
In data set [7] the test system is HuH-7 cells. Briefly: Cell number by DAPI-stained nuclei imaging in HuH-7. As to conditions: 50 µM.
In data set [8] the test system is HuH-7 cells. Briefly: Resazurin reduction assay, toxicity in MOCK-infected (non-infected) HuH-7. As to conditions: HuH-7.
Where [9] appears, read: read-out: EC50 (concentration showing 50% inhibition relative to the maximum inhibition achieved).

Where two headings read alike, the source gives them in different places.

Turning to `CO/C1=C\C(C)=C\[C@@H](C)[C@@H](O)[C@@H](C)C/C(C)=C/C=C/[C@H](OC)[C@@H]([C@@H](C)[C@@H](O)[C@H](C)[C@@]2(O)C[C@@H](O)[C@H](C)[C@@H](C(C)C)O2)OC1=O` [BAF, Bafilomycin A1], the CC50 with HuH-7 cells [1] stood at 0.237 µM; in “in vitro”, 0.09 µM. Moreover, the EC50 with CHIKV-118-GFP [2] came to 0.056 µM.
With `COc1ccc(-c2ccc(C(=O)NC(C)C)c3occc23)c(C)c1` [CND0335], the “percentage of infected cells” value in the data set with CHIKV-118-GFP [3] (20 µM) came to 90.9%. In addition, the CC50 at 72 h in data set [4] was over 50 µM. The EC50 in the data set with CHIKV-118-GFP [2] (setting [9]) worked out at 3.3 µM. Further, the “SI (CC50/EC50)” value in the data set on CHIKV-118-GFP [2] is on record as over 15.
Consider `COc1ccc(-c2ccc(C(=O)Nc3ccc(C(C)C)cc3)c3occc23)c(C)c1` [CND0364], for which, in the data set with CHIKV-118-GFP [3] (20 µM), the “percentage of infected cells” value stood at 80.3% and the inhibition at 20 µM came to 19.7%. In addition, the “observed apoptotic blebs associated with CHIKV infection” value (“observed apoptotic blebs associated” below) with CHIKV-118-GFP [3] is “significantly lower”. Also, in the data set with CHIKV-118-GFP [5] (20 µM), the “log titer reduction vs DMSO vehicle control” value (shortened to “log titer reduction”) is 1.69 log. In the data set with CHIKV-118-GFP [6], the “lowest concentration that inhibited CHIKV-induced CPE (clearing of cell monolayer)” value is given as 12.5 µM. The compound also had a CC50 at 72 h in [4] of over 50 µM. In addition, the EC50 with CHIKV-118-GFP [2] (setting [9]) came out at 6.2 µM. In the data set with CHIKV-118-GFP [2], the “SI (CC50/EC50)” value is over 8.1.
Regarding `COc1ccc(-c2coc3c(C(=O)Nc4cccnc4)cccc23)c(C)c1` [CND0366], the “percentage of infected cells” value in the data set on CHIKV-118-GFP [3] (20 µM) was 94.4%. Moreover, the CC50 at 72 h in data set [4] was over 50 µM. Also, the EC50 in the data set on CHIKV-118-GFP [2] (setting [9]) was 7.1 µM. The “SI (CC50/EC50)” value in the data set on CHIKV-118-GFP [2] is over 7.0.
With `COc1ccc(-c2coc3c(C(=O)NC(C)C)cccc23)c(C)c1` [CND0415], in the data set with CHIKV-118-GFP [3] (20 µM), the “percentage of infected cells” value is reported as 96.4%. In data set [4], this compound registered a CC50 at 72 h of over 50 µM. The EC50 with CHIKV-118-GFP [2] (setting [9]) was found to be 6.2 µM. Besides, the “SI (CC50/EC50)” value in the data set on CHIKV-118-GFP [2] is over 8.1.
As to `COc1cccc(Nc2cc3c(cn2)cc(-c2cccc(C(F)(F)F)c2)n3C)c1` [CND0545], in the data set with CHIKV-118-GFP [3] (20 µM), the “percentage of infected cells” value was 71.7% and the inhibition at 20 µM came out at 28.3%. For the same compound, the “observed apoptotic blebs associated” value in the data set on CHIKV-118-GFP [3] is recorded as “significantly lower”. In addition, the “log titer reduction” value with CHIKV-118-GFP [5] (20 µM) came out at 2.01 log. Also, in the data set with CHIKV-118-GFP [6], the “lowest concentration that inhibited CHIKV-induced CPE (clearing of cell monolayer)” value is 25 µM. Besides, the CC50 at 72 h in [4] was over 50 µM. Moreover, in the data set on CHIKV-118-GFP [2] (setting [9]), the EC50 came out at 5.6 µM. The “SI (CC50/EC50)” value with CHIKV-118-GFP [2] is over 8.9.
As to `CC(C)c1ccc(NC(=O)c2csc(C(O)C(C)C)n2)cc1` (stereo not drawn) [CND3514], the “percentage of infected cells” value with CHIKV-118-GFP [3] (20 µM) is given as 92.2%. The “inhibition against DENV2” value in the data set on DENV2 (BR DEN2 01-01) is reported as 67.87%. In the data set on Huh-7.5 cells, the “toxicity in DENV2 screening (cell number)” value is reported as 39.37%. Moreover, the CC50 at 72 h in data set [4] is over 50 µM. In addition, in the data set with CHIKV-118-GFP [2] (setting [9]), the EC50 worked out at 2.2 µM. Further, in the data set on CHIKV-118-GFP [2], the “SI (CC50/EC50)” value is reported as over 22.7.
`CN(C)CCCN1c2ccccc2Sc2ccc(Cl)cc21` [CPZ, Chlorpromazine]: the “reduction of cell number” value in the data set with HuH-7 cells [7] (24 hrs) was 86%; in the data set on HuH-7 cells [7] (48 hrs), over 99.9%; with HuH-7 cells [7] (72 hrs) it was over 99.9%; in the data set with HuH-7 cells [7] (96 hrs), over 99.9%. Moreover, the “fluorescence readout after resazurin treatment” value in the data set on HuH-7 cells [8] (50 µM, 72 hpi) is 240,842±14,730 RFU.
Take `CCN(CC)CCCC(C)Nc1ccnc2cc(Cl)ccc12` (stereo not drawn) [CQ, Chloroquine, reference compound]: in the data set with CHIKV-118-GFP [3] (50 µM), the “percentage of infected cells” value is listed as 24.4% and the inhibition at 50 µM is 75.6%. The “observed apoptotic blebs associated” value in the data set with CHIKV-118-GFP [3] was “still prominent”. Further, the “log titer reduction” value in the data set on CHIKV-118-GFP [5] (50 µM) came to 1.88 log. Further, the CC50 at 72 h in data set [4] is 90 µM. Moreover, the EC50 with CHIKV-118-GFP [2] came to 29 µM.
Turning to `COc1c(C)c2c(c(O)c1C/C=C(\C)CCC(=O)O)C(=O)OC2` [MPA, Mycophenolic acid, reference compound], in the data set with CHIKV-118-GFP [3] (50 µM), the “percentage of infected cells” value is 7.34% and the inhibition at 50 µM is over 92%. Also, in the data set with CHIKV-118-GFP [3], the “observed apoptotic blebs associated” value is reported as “significantly lower”. For the same compound, the CC50 at 72 h in data set [4] was over 100 µM. Further, the “cytotoxicity at the highest concentration tested” value with HuH-7 cells [8] (100 µM) is on record as “no observable cytotoxicity”. For the same compound, the EC50 in the data set with CHIKV-118-GFP [2] was found to be 1.6 µM.

Broadly, the inhibition is how much of the control response was suppressed.
